Tests used:
Assay type in all cases: functional
Cryptococcus neoformans [1] = test: Antifungal activity against Cryptococcus neoformans; details: Cryptococcus neoformans
Aspergillus fumigatus [2] = test: Antifungal activity against Aspergillus fumigatus; details: Aspergillus fumigatus
Trichophyton rubrum [3] = test: Antifungal activity against Trichophyton rubrum; details: Trichophyton rubrum
Candida parapsilosis [4] = test: Antifungal activity against Candida parapsilosis; details: Lodderomyces parapsilosis
Candida tropicalis [5] = test: Antifungal activity against Candida tropicalis; details: Candida tropicalis
Candida albicans [6] = test: Antifungal activity against Candida albicans ATCC 76615 after 24 hrs by microbroth dilution method; details: ATCC 76615, 24 h
Candida albicans [7] = test: Potency index, ratio of fluconazole MIC to test compound MIC for Candida albicans
Candida albicans [8] = test: Antifungal activity against Candida albicans; details: Candida albicans
Kluyveromyces marxianus = test: Antifungal activity against Candida kefyr; details: Kluyveromyces marxianus
Candida parapsilosis [9] = test: Antifungal activity against fluconalzole-susceptible Candida parapsilosis after 24 hrs; details: Lodderomyces parapsilosis
Candida albicans [10] = test: Antifungal activity against fluconalzole-susceptible Candida albicans after 24 hrs
Pichia kudriavzevii [11] = test: Antifungal activity against Candida krusei CK8; details: Pichia kudriavzevii, CK8; read-out: MIC
Candida parapsilosis [12] = test: Antifungal activity against Candida parapsilosis CAPA2; details: Lodderomyces parapsilosis, CAPA2; read-out: MIC
Pichia kudriavzevii [13] = test: Antifungal activity against Candida krusei CK506; details: Pichia kudriavzevii, CK506; read-out: MIC
Aspergillus fumigatus [14] = test: Antifungal activity against Aspergillus fumigatus AF98003
Candida parapsilosis [15] = test: Antifungal activity against Candida parapsilosis CAPA1; details: Lodderomyces parapsilosis, CAPA1; read-out: MIC
Candida albicans [16] = test: Antifungal activity against Candida albicans CAAL-74; details: Candida albicans, CAAL-74; read-out: MIC
Nakaseomyces glabratus = test: Antifungal activity against Candida glabrata CG468; details: Nakaseomyces glabratus, CG468; read-out: MIC
Candida albicans [17] = test: Antifungal activity against Candida albicans CA98001; details: Candida albicans, CA98001; read-out: MIC
Candida albicans [18] = test: Antifungal activity against Candida albicans DSY735; details: Candida albicans, DSY735; read-out: MIC
Fonsecaea compacta [19] = test: Potency index, ratio of fluconazole MIC to test compound MIC for Fonsecaea compacta
Microsporum canis [20] = test: Potency index, ratio of fluconazole MIC to test compound MIC for Microsporum canis
Fonsecaea compacta [21] = test: Antifungal activity against Fonsecaea compacta after 24 hrs by microbroth dilution method
Candida tropicalis [22] = test: Antifungal activity against Candida tropicalis after 24 hrs by microbroth dilution method
Aspergillus fumigatus [23] = test: Potency index, ratio of fluconazole MIC to test compound MIC for Aspergillus fumigatus
Candida tropicalis [24] = test: Potency index, ratio of fluconazole MIC to test compound MIC for Candida tropicalis
Microsporum canis [25] = test: Antifungal activity against Microsporum canis after 24 hrs by microbroth dilution method
Trichophyton rubrum [26] = test: Potency index, ratio of fluconazole MIC to test compound MIC for Trichophyton rubrum
Trichophyton rubrum [27] = test: Antifungal activity against Trichophyton rubrum after 24 hrs by microbroth dilution method
Aspergillus fumigatus [28] = test: Antifungal activity against Aspergillus fumigatus after 24 hrs by microbroth dilution method
Candida albicans [29] = test: Potency index, ratio of fluconazole MIC to test compound MIC for Candida albicans ATCC 76615
Cryptococcus neoformans [30] = test: Potency index, ratio of fluconazole MIC to test compound MIC for activity against Cryptococcus neoformans ATCC 32609

OC(CN1CCC(OCc2ccc(F)cc2)CC1)(Cn1cncn1)c1ccc(F)cc1F (stereo not given)
82: Ratio (Candida albicans [7])
0.03 to 0.15 µM: MIC80 (Trichophyton rubrum [3])
0.01 to 2.33 µM: MIC80 (Cryptococcus neoformans [1]) | MIC80 (Candida parapsilosis [4]) | MIC80 (Candida tropicalis [5]) | MIC80 (Candida albicans [6]) | MIC80 (Kluyveromyces marxianus)
0.55 to 2.33 µM: MIC80 (Aspergillus fumigatus [2])
0.01 µM: MIC80 (Candida albicans [8])

OC(Cn1cncn1)(Cn1cnc(SCc2ccccc2F)n1)c1ccc(F)cc1F (stereo not given)
0.063 to 1 µg/mL: MIC (Candida parapsilosis [9]) | MIC (Candida albicans [10])

CC(C)c1ccc(NS(=O)(=O)c2ccc(CN(C)CC(O)(Cn3cncn3)c3ccc(F)cc3F)cc2)cc1 (stereo not given)
0.001 to 0.069 µg/mL: MIC (Pichia kudriavzevii [11]) | MIC (Candida parapsilosis [12]) | MIC (Pichia kudriavzevii [13]) | MIC (Candida parapsilosis [15]) | MIC (Candida albicans [16]) | MIC (Nakaseomyces glabratus) | MIC (Candida albicans [17]) | MIC (Candida albicans [18])
0.767 to 3.57 µg/mL: MIC (Aspergillus fumigatus [14])

OC(Cn1cncn1)(Cn1cnc(SCc2ccc(Cl)c(Cl)c2)n1)c1ccc(F)cc1F (stereo not given)
0.063 to 1 µg/mL: MIC (Candida parapsilosis [9]) | MIC (Candida albicans [10])

OC(CN1CCC(OCc2cccc(Cl)c2)CC1)(Cn1cncn1)c1ccc(F)cc1F (stereo not given)
0.55 to 2.33 µM: MIC80 (Aspergillus fumigatus [2])
0.01 µM: MIC80 (Candida albicans [8])
0.03 to 0.15 µM: MIC80 (Trichophyton rubrum [3])
0.01 to 2.33 µM: MIC80 (Cryptococcus neoformans [1]) | MIC80 (Candida parapsilosis [4]) | MIC80 (Candida tropicalis [5]) | MIC80 (Candida albicans [6]) | MIC80 (Kluyveromyces marxianus)
82: Ratio (Candida albicans [7])

CC(C)CNS(=O)(=O)c1ccc(CN(C)CC(O)(Cn2cncn2)c2ccc(F)cc2F)cc1 (stereo not given)
0.767 to 3.57 µg/mL: MIC (Aspergillus fumigatus [14])
0.001 to 0.069 µg/mL: MIC (Pichia kudriavzevii [11]) | MIC (Candida parapsilosis [12]) | MIC (Pichia kudriavzevii [13]) | MIC (Candida parapsilosis [15]) | MIC (Candida albicans [16]) | MIC (Nakaseomyces glabratus) | MIC (Candida albicans [17]) | MIC (Candida albicans [18])

OC(CN1CCC(OCc2ccccc2)CC1)(Cn1cncn1)c1ccc(F)cc1F (stereo not given)
0.01 to 0.56 µM: MIC80 (Cryptococcus neoformans [1]) | MIC80 (Aspergillus fumigatus [2]) | MIC80 (Trichophyton rubrum [3]) | MIC80 (Candida parapsilosis [4]) | MIC80 (Candida tropicalis [5]) | MIC80 (Candida albicans [6]) | MIC80 (Candida albicans [8]) | MIC80 (Kluyveromyces marxianus)
82: Ratio (Candida albicans [7])

OC(Cn1cncn1)(Cn1cnc(SCc2ccc(Br)cc2)n1)c1ccc(F)cc1F (stereo not given)
0.063 to 1 µg/mL: MIC (Candida parapsilosis [9]) | MIC (Candida albicans [10])

CN(Cc1ccc(S(=O)(=O)Nc2ccccc2)cc1)CC(O)(Cn1cncn1)c1ccc(F)cc1F (stereo not given)
0.767 to 3.57 µg/mL: MIC (Aspergillus fumigatus [14])
0.001 to 0.069 µg/mL: MIC (Pichia kudriavzevii [11]) | MIC (Candida parapsilosis [12]) | MIC (Pichia kudriavzevii [13]) | MIC (Candida parapsilosis [15]) | MIC (Candida albicans [16]) | MIC (Nakaseomyces glabratus) | MIC (Candida albicans [17]) | MIC (Candida albicans [18])

CCCc1ccc(NS(=O)(=O)c2ccc(CN(C)CC(O)(Cn3cncn3)c3ccc(F)cc3F)cc2)cc1 (stereo not given)
0.001 to 0.069 µg/mL: MIC (Pichia kudriavzevii [11]) | MIC (Candida parapsilosis [12]) | MIC (Pichia kudriavzevii [13]) | MIC (Candida parapsilosis [15]) | MIC (Candida albicans [16]) | MIC (Nakaseomyces glabratus) | MIC (Candida albicans [17]) | MIC (Candida albicans [18])
0.767 to 3.57 µg/mL: MIC (Aspergillus fumigatus [14])

OC(Cn1cncn1)(Cn1cnc(SCc2ccc(F)cc2)n1)c1ccc(F)cc1F (stereo not given)
0.063 to 1 µg/mL: MIC (Candida parapsilosis [9]) | MIC (Candida albicans [10])

OC(Cn1cncn1)(Cn1cnc(SCc2cccc(F)c2)n1)c1ccc(F)cc1F (stereo not given)
0.063 to 1 µg/mL: MIC (Candida parapsilosis [9]) | MIC (Candida albicans [10])

OC(CN(Cc1ccc(F)cc1F)C1CC1)(Cn1cncn1)c1ccc(F)cc1F (stereo not given)
0.125 µg/mL: MIC80 (Fonsecaea compacta [21]) | MIC80 (Candida tropicalis [22]) | MIC80 (Microsporum canis [25]) | MIC80 (Trichophyton rubrum [27]) | MIC80 (Aspergillus fumigatus [28])
4: Ratio (Fonsecaea compacta [19]) | Ratio (Microsporum canis [20]) | Ratio (Aspergillus fumigatus [23]) | Ratio (Candida tropicalis [24]) | Ratio (Trichophyton rubrum [26]) | Ratio (Candida albicans [29]) | Ratio (Cryptococcus neoformans [30])

O=[N+]([O-])c1ccc(CSc2ncn(CC(O)(Cn3cncn3)c3ccc(F)cc3F)n2)cc1 (stereo not given)
0.063 to 1 µg/mL: MIC (Candida parapsilosis [9]) | MIC (Candida albicans [10])

Cc1ccc(CN(CC(O)(Cn2cncn2)c2ccc(F)cc2F)C2CC2)cc1 (stereo not given)
0.125 µg/mL: MIC80 (Fonsecaea compacta [21]) | MIC80 (Candida tropicalis [22]) | MIC80 (Microsporum canis [25]) | MIC80 (Trichophyton rubrum [27]) | MIC80 (Aspergillus fumigatus [28])
4: Ratio (Fonsecaea compacta [19]) | Ratio (Microsporum canis [20]) | Ratio (Aspergillus fumigatus [23]) | Ratio (Candida tropicalis [24]) | Ratio (Trichophyton rubrum [26]) | Ratio (Candida albicans [29]) | Ratio (Cryptococcus neoformans [30])

OC(CN(Cc1ccc(Br)cc1)C1CC1)(Cn1cncn1)c1ccc(F)cc1F (stereo not given)
0.125 µg/mL: MIC80 (Fonsecaea compacta [21]) | MIC80 (Candida tropicalis [22]) | MIC80 (Microsporum canis [25]) | MIC80 (Trichophyton rubrum [27]) | MIC80 (Aspergillus fumigatus [28])
4: Ratio (Fonsecaea compacta [19]) | Ratio (Microsporum canis [20]) | Ratio (Aspergillus fumigatus [23]) | Ratio (Candida tropicalis [24]) | Ratio (Trichophyton rubrum [26]) | Ratio (Candida albicans [29]) | Ratio (Cryptococcus neoformans [30])

OC(CN1CCC(OCc2ccccc2F)CC1)(Cn1cncn1)c1ccc(F)cc1F (stereo not given)
82: Ratio (Candida albicans [7])
0.01 to 0.56 µM: MIC80 (Cryptococcus neoformans [1]) | MIC80 (Aspergillus fumigatus [2]) | MIC80 (Trichophyton rubrum [3]) | MIC80 (Candida parapsilosis [4]) | MIC80 (Candida tropicalis [5]) | MIC80 (Candida albicans [6]) | MIC80 (Candida albicans [8]) | MIC80 (Kluyveromyces marxianus)
